Measurements published in patent US20110027324A1, “O-DESMETHYL-V[…] TREATING MAJOR DEPRESSIVE DISORDER” (Wyeth LLC, priority 2007, published 2011).

Legend:
[1] = tested on: subjects with a primary diagnosis of MDD; test: MDD Study No. 1: efficacy evaluation, randomized double-blind placebo-controlled 8-week study; assay type: in vivo, human
Method: This example describes the results of a multicenter, randomized, double-blind, placebo-controlled, parallel-group study that was designed to evaluate the efficacy and safety of 50 and 100 mg/day ODV for treating MDD.
Subjects were male or female outpatients at least 18 years of age who had depressive symptoms for at least 30 days before the screening visit, and a primary diagnosis of MDD based on the criteria in the Diagnostic and Statistical Manual of Mental Disorders, Fourth edition (DSM-IV), single or recurrent episode, without psychotic features. Minimum screening and baseline scores of 20 on the Hamilton Rating Scale for Depression, 17-item (HAM-D17), of 2 on item 1 (depressed mood) on the HAM-D17, and of 4 on the Clinical Global Impressions Scale-Severity (CGI-S) were also required.
The planned enrollment was 480 subjects. A total of 703 subjects were screened for participation; 229 were screen failures and 474 were randomly assigned to treatment: 159 were assigned to receive placebo, 158 were assigned to receive ODV 50 mg/day; and 157 were assigned to receive ODV 100 mg/day. Twenty-three (23) of these 474 subjects were considered “no-data subjects” (randomized to treatment without information as to treatment). […]
The primary outcome variable was the HAM-D17 total score. The key secondary outcome variable was the Clinical Global Impressions Scale-Improvement (CGI-D score. Other secondary efficacy variables included the CGI-S, the Montgomery and Asberg Depression Rating Scale (MADRS) score, the HAM-D6 (Bech version: HAM-D17 items 1, 2, 7, 8, 10, and 13) score, the Covi Anxiety Scale total score, the remission rate (percentage of subjects with HAM-D17 scores of ≦7), response rates for the HAM-D17 (50% or greater change from baseline in the HAM-D17 total score), MADRS, and CGI-I, and the visual analog scale for pain intensity (VAS-PI). Self-administered health outcomes assessments were measured by the Sheehan Disability Scale (SDS) and the World Health Organization 5-Item Well-Being Index (WHO-5). […]

[2] = tested on: subjects with a primary diagnosis of MDD; test: MDD Study No. 2: safety evaluation (AEs, DESS, laboratory); assay type: in vivo, human; conditions: for subjects with AEs as reason for discontinuation: on-therapy period, placebo 3%
Method: The safety of the two doses was determined using the same assessments as in Example 1. […] Headache was the only TPAE with an incidence≧5% in the placebo group.
The DESS checklist was used to evaluate symptoms that first occurred, or that worsened, during the taper period (the 7-day period after the end of the double-blind treatment period). During this 7-day period, doses of ODV were tapered to 0 mg for subjects in the 50 mg group, and to 50 mg for subjects in the 100 mg group. The DESS checklist was administered to 420 of the 423 subjects who had completed at least 53 days of on-therapy treatment.

[3] = all subjects, 50 and 100 mg/day

CN(C)CC(c1ccc(O)cc1)C1(O)CCCCC1 (stereo not drawn) [ODV, 1-[2-(dimethylamino)-1-(4-phenol)ethyl]-cyclohexanol]
HAM-D17 total score, adjusted mean change from baseline ([1]; 50 mg/day, FOT evaluation, ANCOVA LOCF, placebo −9.53): −11.5 | HAM-D17 total score, adjusted mean change from baseline ([1]; 50 mg/day, week 8, mixed-effects model, placebo −9.86): −12.40 | HAM-D17 total score, adjusted mean change from baseline ([1]; 100 mg/day, week 8, mixed-effects model, placebo −9.86): −11.88 | incidence of nausea leading to discontinuation ([2]; 50 mg group): 1.2% | incidence of sweating leading to discontinuation ([2]; 50 mg group): 1.2% | incidence of vomiting leading to discontinuation ([2]; 50 mg group): 1.2% | most common (incidence≧5%) taper/poststudy-emergent AEs ([2]; 50 mg group): headache, nausea, dizziness, and insomnia | subjects with clinically important elevated SGPT/ALT levels ([2]; 50 mg group): another subject | p-value, mean DESS scores in comparison with placebo ([2]; 50 mg group, during the 7-day taper period): 0.001 | subjects with clinically important increased total cholesterol levels ([2]; 50 mg group, number of subjects): 1 | subjects with clinically important elevated SGOT/AST levels ([2]; 50 mg group, number of subjects, placebo 1): 1 | subjects with AEs as reason for discontinuation ([2]; 50 mg group): 5% | incidence of anorgasmia in men leading to discontinuation ([2]; 100 mg group): 2.1% | incidence of asthenia leading to discontinuation ([2]; 100 mg group): 1.3% | incidence of headache leading to discontinuation ([2]; 100 mg group): 1.3% | incidence of nausea leading to discontinuation ([2]; 100 mg group): 3.8% | most common (incidence≧5%) TPAEs ([2]; 100 mg group): headache, nausea, depression, dizziness, and vertigo | subjects with AEs as reason for discontinuation ([2]; 100 mg group): 7% | p-value, mean DESS in comparison with placebo ([2]; 100 mg group, week after the 7-day taper period): 0.017 | SAEs during the on-therapy period [2, 3]: None of the subjects had SAEs during the on-therapy period | deaths during the study [2, 3]: No deaths occurred during this study
